What all share (experiment): HotSpot kinase profiling
Common to all, as to type: biochemical

One test has as its target T1, P70S6Kb/RPS6KB2 (Homo sapiens, UniProt Q9UBS0).
T1 construct: purchased Reaction Biology Corp
The gist of the method:
(§1)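 Radiometric kinase assay with P81 filter capture; each kinase was added to fresh substrate plus cofactors in reaction buffer and incubated 2 h at room temperature. Unreacted phosphate was washed off with 0.1% phosphoric acid before detection; percent inhibition is relative to DMSO control, averaged over replicates.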

Another test has as its target T2, GSK3a (Homo sapiens, UniProt P49840).
T2 construct: purchased Reaction Biology Corp
The gist of the method:
as §1

Another test addresses T3, COT1/MAP3K8 (Homo sapiens, UniProt P41279).
T3 construct: purchased Reaction Biology Corp
The gist of the method:
as §1

A further test concerns the target T4, HIPK2 (Homo sapiens, UniProt Q9H2X6).
T4 construct: purchased Reaction Biology Corp
An outline of the steps:
as §1

Another test deals with T5, ITK (Homo sapiens, UniProt Q08881).
T5 construct: purchased Reaction Biology Corp
T5 sequence (Q08881 1-620): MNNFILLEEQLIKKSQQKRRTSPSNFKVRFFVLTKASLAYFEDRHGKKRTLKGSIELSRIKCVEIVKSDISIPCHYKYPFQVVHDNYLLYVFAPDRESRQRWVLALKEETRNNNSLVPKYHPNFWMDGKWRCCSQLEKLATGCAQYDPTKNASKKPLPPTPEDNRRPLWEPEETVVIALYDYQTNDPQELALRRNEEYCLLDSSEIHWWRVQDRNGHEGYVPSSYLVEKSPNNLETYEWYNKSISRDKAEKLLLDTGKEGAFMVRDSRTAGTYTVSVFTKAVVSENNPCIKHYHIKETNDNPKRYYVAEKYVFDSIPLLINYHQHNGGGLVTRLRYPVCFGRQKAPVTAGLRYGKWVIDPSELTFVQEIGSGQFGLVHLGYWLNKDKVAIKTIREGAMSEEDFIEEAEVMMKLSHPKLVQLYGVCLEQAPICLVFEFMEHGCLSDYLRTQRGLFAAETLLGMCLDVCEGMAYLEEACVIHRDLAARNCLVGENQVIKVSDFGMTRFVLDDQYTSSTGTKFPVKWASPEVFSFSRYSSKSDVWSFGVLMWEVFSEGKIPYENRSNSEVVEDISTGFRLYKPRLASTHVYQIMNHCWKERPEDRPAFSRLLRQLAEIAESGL
The gist of the method:
as §1

Another test concerns the target T6, ALK5/TGFBR1 (Homo sapiens, UniProt P36897).
T6 construct: purchased Reaction Biology Corp
T6 sequence (P36897 34-503): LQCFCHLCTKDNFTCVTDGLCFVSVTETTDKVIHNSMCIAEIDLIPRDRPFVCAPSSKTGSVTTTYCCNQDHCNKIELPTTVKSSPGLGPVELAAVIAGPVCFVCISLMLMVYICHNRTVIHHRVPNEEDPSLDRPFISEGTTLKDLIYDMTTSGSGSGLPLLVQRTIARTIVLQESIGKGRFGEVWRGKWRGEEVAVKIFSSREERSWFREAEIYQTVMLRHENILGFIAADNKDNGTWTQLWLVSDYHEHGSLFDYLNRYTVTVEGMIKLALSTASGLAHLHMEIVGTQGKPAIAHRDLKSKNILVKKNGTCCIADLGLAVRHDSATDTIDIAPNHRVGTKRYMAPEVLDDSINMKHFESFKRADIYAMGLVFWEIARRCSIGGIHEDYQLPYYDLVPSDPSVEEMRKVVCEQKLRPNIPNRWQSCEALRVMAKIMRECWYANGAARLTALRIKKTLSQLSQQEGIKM
The gist of the method:
as §1

The target in a further test is T7, BRSK2 (Homo sapiens, UniProt Q8IWQ3).
T7 construct: purchased Reaction Biology Corp
T7 sequence (Q8IWQ3 1-736): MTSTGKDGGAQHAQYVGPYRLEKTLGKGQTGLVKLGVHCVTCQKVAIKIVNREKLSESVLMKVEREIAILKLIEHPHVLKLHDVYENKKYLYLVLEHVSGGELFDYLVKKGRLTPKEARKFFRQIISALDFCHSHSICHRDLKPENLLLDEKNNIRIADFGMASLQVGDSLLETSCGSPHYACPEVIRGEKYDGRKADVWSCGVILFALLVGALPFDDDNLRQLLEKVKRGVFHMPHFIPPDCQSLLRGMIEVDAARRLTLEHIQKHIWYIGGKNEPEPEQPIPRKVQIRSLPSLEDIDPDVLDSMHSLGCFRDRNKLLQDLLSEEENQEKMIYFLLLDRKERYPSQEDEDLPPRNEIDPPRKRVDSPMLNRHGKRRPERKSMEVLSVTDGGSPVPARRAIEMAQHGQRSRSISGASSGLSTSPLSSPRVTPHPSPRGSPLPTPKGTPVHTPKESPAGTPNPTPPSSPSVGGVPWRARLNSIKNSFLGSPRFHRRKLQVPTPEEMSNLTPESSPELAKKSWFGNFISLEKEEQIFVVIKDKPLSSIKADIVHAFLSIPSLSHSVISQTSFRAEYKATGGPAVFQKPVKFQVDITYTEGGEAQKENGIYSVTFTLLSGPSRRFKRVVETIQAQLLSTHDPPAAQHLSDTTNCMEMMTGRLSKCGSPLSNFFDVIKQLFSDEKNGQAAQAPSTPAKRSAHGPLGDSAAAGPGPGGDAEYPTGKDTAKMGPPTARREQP
An outline of the steps:
as §1

The next test concerns the target T8, IRAK1 (Homo sapiens, UniProt P51617).
T8 construct: purchased Reaction Biology Corp
The gist of the method:
as §1

Where [1] appears, read: read-out: % Enzyme Activity (relative to DMSO controls) Run 1.
The mark [2] stands for this setting: read-out: % Enzyme Activity (relative to DMSO controls) Run 2.

Where two headings read alike, the source gives them in different places.

T8 sequence (P51617 whole entry): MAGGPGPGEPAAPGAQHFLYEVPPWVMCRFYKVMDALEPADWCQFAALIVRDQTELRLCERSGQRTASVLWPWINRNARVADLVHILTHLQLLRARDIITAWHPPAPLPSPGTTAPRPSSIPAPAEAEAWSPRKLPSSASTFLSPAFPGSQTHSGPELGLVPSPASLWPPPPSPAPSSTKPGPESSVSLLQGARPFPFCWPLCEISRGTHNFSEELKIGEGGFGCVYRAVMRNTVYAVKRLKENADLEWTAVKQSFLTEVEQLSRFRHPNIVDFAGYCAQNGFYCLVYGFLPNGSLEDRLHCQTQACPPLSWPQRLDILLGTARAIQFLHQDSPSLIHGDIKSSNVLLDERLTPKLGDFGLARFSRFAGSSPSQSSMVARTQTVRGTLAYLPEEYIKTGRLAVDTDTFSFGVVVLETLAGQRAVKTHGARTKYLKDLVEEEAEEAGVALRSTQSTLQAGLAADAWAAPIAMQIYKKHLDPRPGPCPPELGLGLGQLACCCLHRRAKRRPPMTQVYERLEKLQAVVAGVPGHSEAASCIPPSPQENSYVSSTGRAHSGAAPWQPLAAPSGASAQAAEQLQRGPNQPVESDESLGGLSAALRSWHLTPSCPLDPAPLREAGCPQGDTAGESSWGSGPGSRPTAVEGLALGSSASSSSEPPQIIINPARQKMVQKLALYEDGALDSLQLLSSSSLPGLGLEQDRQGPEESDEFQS
T4 sequence (Q9H2X6 whole entry): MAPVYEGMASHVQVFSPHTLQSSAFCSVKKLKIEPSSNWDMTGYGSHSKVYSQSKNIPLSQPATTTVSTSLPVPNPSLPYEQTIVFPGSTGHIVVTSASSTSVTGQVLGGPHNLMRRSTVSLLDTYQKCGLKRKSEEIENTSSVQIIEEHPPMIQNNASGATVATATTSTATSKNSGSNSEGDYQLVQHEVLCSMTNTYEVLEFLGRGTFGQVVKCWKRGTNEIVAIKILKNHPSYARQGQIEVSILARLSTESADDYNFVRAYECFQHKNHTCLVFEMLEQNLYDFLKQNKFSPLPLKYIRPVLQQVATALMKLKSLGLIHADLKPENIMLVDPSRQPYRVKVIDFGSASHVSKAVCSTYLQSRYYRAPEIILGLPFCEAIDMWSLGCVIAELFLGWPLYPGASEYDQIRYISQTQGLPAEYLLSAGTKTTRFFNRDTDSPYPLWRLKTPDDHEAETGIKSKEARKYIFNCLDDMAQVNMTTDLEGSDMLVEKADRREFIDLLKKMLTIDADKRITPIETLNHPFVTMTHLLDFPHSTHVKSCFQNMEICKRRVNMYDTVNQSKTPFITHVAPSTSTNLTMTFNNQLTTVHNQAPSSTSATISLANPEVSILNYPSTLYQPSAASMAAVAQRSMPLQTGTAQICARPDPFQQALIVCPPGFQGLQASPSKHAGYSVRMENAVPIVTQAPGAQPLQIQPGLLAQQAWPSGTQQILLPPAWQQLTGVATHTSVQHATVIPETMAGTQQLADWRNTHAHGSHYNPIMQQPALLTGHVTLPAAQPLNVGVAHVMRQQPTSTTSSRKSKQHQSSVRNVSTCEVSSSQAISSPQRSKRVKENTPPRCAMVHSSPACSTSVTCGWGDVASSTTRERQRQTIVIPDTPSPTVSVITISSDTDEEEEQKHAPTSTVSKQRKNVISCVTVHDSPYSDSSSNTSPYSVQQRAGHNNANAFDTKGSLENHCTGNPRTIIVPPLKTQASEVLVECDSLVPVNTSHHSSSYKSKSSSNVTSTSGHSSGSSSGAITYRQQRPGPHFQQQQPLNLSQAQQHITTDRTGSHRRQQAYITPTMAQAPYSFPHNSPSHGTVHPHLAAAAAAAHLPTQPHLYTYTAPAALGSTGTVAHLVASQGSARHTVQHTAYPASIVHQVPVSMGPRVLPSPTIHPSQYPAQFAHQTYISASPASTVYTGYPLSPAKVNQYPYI
T1 sequence (Q9UBS0 whole entry): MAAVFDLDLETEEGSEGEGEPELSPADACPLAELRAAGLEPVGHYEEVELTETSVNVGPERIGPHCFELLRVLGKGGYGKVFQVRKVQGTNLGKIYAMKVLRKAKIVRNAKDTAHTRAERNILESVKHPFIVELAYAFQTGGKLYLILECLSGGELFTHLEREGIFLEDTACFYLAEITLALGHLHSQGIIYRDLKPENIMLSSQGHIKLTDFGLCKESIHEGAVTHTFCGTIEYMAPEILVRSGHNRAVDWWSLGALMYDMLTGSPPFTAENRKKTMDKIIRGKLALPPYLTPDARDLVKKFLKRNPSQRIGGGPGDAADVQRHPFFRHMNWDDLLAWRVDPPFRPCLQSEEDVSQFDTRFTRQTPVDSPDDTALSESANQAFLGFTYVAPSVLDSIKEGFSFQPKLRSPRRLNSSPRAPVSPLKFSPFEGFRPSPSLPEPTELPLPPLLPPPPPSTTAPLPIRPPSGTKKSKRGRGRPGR
T2 sequence (P49840 whole entry): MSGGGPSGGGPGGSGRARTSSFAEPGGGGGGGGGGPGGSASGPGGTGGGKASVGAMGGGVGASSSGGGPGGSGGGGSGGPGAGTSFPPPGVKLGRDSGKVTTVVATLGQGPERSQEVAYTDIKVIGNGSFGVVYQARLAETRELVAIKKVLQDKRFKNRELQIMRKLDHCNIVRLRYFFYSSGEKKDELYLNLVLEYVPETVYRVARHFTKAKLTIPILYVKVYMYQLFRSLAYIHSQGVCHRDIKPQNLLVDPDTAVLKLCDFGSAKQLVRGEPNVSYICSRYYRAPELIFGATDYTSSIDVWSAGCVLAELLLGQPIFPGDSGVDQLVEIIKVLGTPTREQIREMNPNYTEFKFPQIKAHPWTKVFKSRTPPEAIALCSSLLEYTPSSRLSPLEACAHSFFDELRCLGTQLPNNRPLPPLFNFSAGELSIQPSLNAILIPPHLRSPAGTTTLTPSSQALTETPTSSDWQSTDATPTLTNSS
T3 sequence (P41279 whole entry): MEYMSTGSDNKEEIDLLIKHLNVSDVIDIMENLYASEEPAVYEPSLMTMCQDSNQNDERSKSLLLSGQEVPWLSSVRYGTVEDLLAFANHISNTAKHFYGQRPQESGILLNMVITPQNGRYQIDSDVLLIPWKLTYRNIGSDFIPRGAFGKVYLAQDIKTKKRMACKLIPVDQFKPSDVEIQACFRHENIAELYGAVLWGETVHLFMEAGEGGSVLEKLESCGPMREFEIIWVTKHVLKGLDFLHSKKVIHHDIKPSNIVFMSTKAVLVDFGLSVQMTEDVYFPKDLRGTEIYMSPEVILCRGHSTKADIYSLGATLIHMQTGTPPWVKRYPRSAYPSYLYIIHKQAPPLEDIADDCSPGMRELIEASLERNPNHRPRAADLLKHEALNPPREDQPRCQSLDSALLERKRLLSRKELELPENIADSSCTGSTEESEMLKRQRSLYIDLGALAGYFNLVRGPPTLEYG

As a reminder, the inhibition is the change of the read-out against control, counted positive when it falls. As to `C=CC(=O)Nc1cccc(Nc2nc(Nc3ccc(OCCOC)c(F)c3)ncc2F)c1` [Compound 2], the inhibition at 3 µM is 4.15% on P70S6Kb/RPS6KB2; 24.5% against GSK3a; -1.33% on COT1/MAP3K8; 2.82% against HIPK2; 92% on ITK; -8.03% at ALK5/TGFBR1. Moreover, the inhibition at 3 µM against BRSK2 came out at 8.66%; at IRAK1, 24.6%. Besides, the remaining activity at 3 µM at P70S6Kb/RPS6KB2 (setting [1]) is 95.6%; on P70S6Kb/RPS6KB2 (setting [2]), 96.1%; at GSK3a (setting [1]), 76%; on GSK3a (setting [2]), 75%; at COT1/MAP3K8 (setting [1]), 102%; on COT1/MAP3K8 (setting [2]), 101%. Also, the remaining activity at 3 µM on HIPK2 (setting [1]) worked out at 95.8%; at HIPK2 (setting [2]), 98.6%; at ITK (setting [1]), 7.97%; on ITK (setting [2]) it was 7.95%; on ALK5/TGFBR1 (setting [1]), 106%; at ALK5/TGFBR1 (setting [2]) it was 110%. For the same compound, the remaining activity at 3 µM is 91% at BRSK2 (setting [1]), 91.7% on BRSK2 (setting [2]), 76.5% on IRAK1 (setting [1]) and 74.4% at IRAK1 (setting [2]).

The record behind these values is patent US9492471B2, “Methods of treating a disease or disorder associated with Bruton'S Tyrosine Kinase” (Celgene Avilomics Research, Inc., priority 2013, dated 2016).
